{
  "source": "paper PMC2821452",
  "about": "(Synapse (New York, N.Y.), 2010)",
  "system": "opioid receptors",
  "assay": "Affinity for opioid receptors",
  "assay_type": "binding",
  "conditions": "unpublished data",
  "data": [
    {"compound": "CC(=O)O[C@@H]1C[C@H]2C(C)(C)C(=O)C=C[C@]2(C)[C@H]2CC[C@@]3(C)[C@H](c4ccoc4)OC(=O)[C@H]4O[C@]43[C@@]21C", "note": "[Gedunin, (1S,3aS,4aR,4bS,5R,6aR,10aR,10bR,12aS)-5-(acetyloxy)-1-(3-furanyl)-1,5,6,6a,7,10a,10b,11,12,12a-decahydro-4b,7,7,10a,12a-pentamethyl-oxireno[c]phenanthro[1,2-d]pyran-3,8(3aH,4bH)-dione]", "values": [
      {"measurement": "affinity for opioid receptors", "result": "no affinity"}
    ]}
  ]
}
